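Growth conditions: 96-well plates. Treatment: test compound, 48 hours, 5 concentrations. Analysis: linear interpolation between bracketing concentrations; unreached endpoints set to highest concentration. At the GI50, growth is halved.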 Activity calls are given as the source filed them. Rule as the data show it: active = GI50 up to about 1.1 µM and inactive = higher.
Assays:
Test in all cases: inhibition of tumour cell growth, NCI panel, 48 h
UACC-257 = test system: UACC-257
SF-539 = test system: SF-539
DU-145 = test system: DU-145
HOP-62 = test system: HOP-62
MDA-N = test system: MDA-N
SK-MEL-5 = test system: SK-MEL-5
SN12C = test system: SN12C
OVCAR-5 = test system: OVCAR-5
HCT-15 = test system: HCT-15
HT-29 = test system: HT-29
COLO 205 = test system: COLO 205
IGROV-1 = test system: IGROV-1
HCT-116 = test system: HCT-116
MCF7 = test system: MCF7
SNB-19 = test system: SNB-19
NCI-H522 = test system: NCI-H522
KM12 = test system: KM12
NCI-H460 = test system: NCI-H460
HCC 2998 = test system: HCC 2998
SR = test system: SR
OVCAR-4 = test system: OVCAR-4
U-251 = test system: U-251
CCRF-CEM = test system: CCRF-CEM
CAKI-1 = test system: CAKI-1
M14 = test system: M14
SNB-75 = test system: SNB-75
MDA-MB-231 = test system: MDA-MB-231
EKVX = test system: EKVX
SK-MEL-28 = test system: SK-MEL-28
SW-620 = test system: SW-620
SK-OV-3 = test system: SK-OV-3
A549 = test system: A549
NCI-H226 = test system: NCI-H226
BT-549 = test system: BT-549
TK-10 = test system: TK-10
MOLT-4 = test system: MOLT-4
NCI-H23 = test system: NCI-H23
K562 = test system: K562
UACC-62 = test system: UACC-62
MDA-MB-435 = test system: MDA-MB-435
LOX IMVI = test system: LOX IMVI
SF-268 = test system: SF-268
OVCAR-8 = test system: OVCAR-8
OVCAR-3 = test system: OVCAR-3
Hs-578T = test system: Hs-578T
NCI/ADR-RES = test system: NCI/ADR-RES
PC-3 = test system: PC-3
UO-31 = test system: UO-31
SF-295 = test system: SF-295
ACHN = test system: ACHN
HOP-92 = test system: HOP-92
786-0 = test system: 786-0

SMILES: COC(=O)Cc1cccc2c(=O)c(S(=O)(=O)NC(=O)Nc3ccc(Cl)cc3)c(-c3ccccc3)oc12
- GI50 (UACC-257): 87.5 µM (inactive)
- GI50 (SF-539): 58.5 µM (inactive)
- GI50 (DU-145): > 100 µM (inactive)
- GI50 (HOP-62): > 100 µM (inactive)
- GI50 (MDA-N): > 100 µM (inactive)
- GI50 (SK-MEL-5): 30.2 µM (inactive)
- GI50 (SN12C): 36.6 µM (inactive)
- GI50 (OVCAR-5): > 100 µM (inactive)
- GI50 (HCT-15): 8.75 µM
- GI50 (HT-29): 74.5 µM (inactive)
- GI50 (COLO 205): 34.4 µM (inactive)
- GI50 (IGROV-1): 38.5 µM (inactive)
- GI50 (HCT-116): 33.3 µM (inactive)
- GI50 (MCF7): 47.8 µM (inactive)
- GI50 (SNB-19): 44.6 µM (inactive)
- GI50 (NCI-H522): 16.4 µM (inactive)
- GI50 (KM12): 34.4 µM (inactive)
- GI50 (NCI-H460): 32.7 µM (inactive)
- GI50 (HCC 2998): 54.6 µM (inactive)
- GI50 (SR): 36.9 µM (inactive)
- GI50 (OVCAR-4): > 100 µM (inactive)
- GI50 (U-251): 50.6 µM (inactive)
- GI50 (CCRF-CEM): 15.9 µM (inactive)
- GI50 (CAKI-1): 24.3 µM (inactive)
- GI50 (M14): > 100 µM (inactive)
- GI50 (SNB-75): > 100 µM (inactive)
- GI50 (MDA-MB-231): 29.2 µM (inactive)
- GI50 (EKVX): > 100 µM (inactive)
- GI50 (SK-MEL-28): 34.6 µM (inactive)
- GI50 (SW-620): 13.9 µM (inactive)
- GI50 (SK-OV-3): > 100 µM (inactive)
- GI50 (A549): 69.2 µM (inactive)
- GI50 (NCI-H226): > 100 µM (inactive)
- GI50 (BT-549): 55.6 µM (inactive)
- GI50 (TK-10): > 100 µM (inactive)
- GI50 (MOLT-4): 17.1 µM (inactive)
- GI50 (NCI-H23): 57 µM (inactive)
- GI50 (K562): 4.3 µM (inactive)
- GI50 (UACC-62): 13.5 µM (inactive)
- GI50 (MDA-MB-435): 11.3 µM (inactive)
- GI50 (LOX IMVI): 13.5 µM (inactive)
- GI50 (SF-268): 73.5 µM (inactive)
- GI50 (OVCAR-8): 69.3 µM (inactive)
- GI50 (OVCAR-3): 79.8 µM (inactive)
- GI50 (Hs-578T): > 100 µM (inactive)
- GI50 (NCI/ADR-RES): > 100 µM (inactive)
- GI50 (PC-3): 16.3 µM (inactive)
- GI50 (UO-31): 25.8 µM (inactive)
- GI50 (SF-295): 67.9 µM (inactive)
- GI50 (ACHN): 12.2 µM (inactive)
- GI50 (HOP-92): 29.6 µM (inactive)
- GI50 (786-0): > 100 µM (inactive)
